Molecular target: T1, CAL (Moesziomyces antarcticus, UniProt P41365)
T1 construct: immobilised commercial lipase Novozyme_435 (known to be lipase B)
T1 sequence (P41365 26-342): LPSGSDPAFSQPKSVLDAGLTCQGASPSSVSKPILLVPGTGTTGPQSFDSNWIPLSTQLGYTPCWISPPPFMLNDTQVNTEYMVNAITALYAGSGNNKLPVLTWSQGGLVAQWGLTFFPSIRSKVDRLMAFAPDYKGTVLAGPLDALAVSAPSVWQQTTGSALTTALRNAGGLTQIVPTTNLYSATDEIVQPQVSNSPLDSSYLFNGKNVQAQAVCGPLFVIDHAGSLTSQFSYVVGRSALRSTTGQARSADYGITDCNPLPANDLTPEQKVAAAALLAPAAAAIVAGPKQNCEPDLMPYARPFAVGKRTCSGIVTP
Assay: lipase-catalysed acetylation, LC-MS
Assay type: biochemical
Details: immobilised enzyme; ethyl acetate/toluene 10:90, 4% acetate buffer pH 6, 40 °C; acyl donor geranyl acetate 1:50; acyl donor to curcumin

lipase-catalysed acetylation, LC-MS: using geranyl acetate as the acyl donor
Structure (SMILES): CC(=O)OC/C=C(\C)CCC=C(C)C [geranyl acetate]

Reference: article PMC6272579, “A Three-Enzyme-System to Degrade Curcumin to Natural Vanillin” (Molecules, 2015)
